Assay [1] concerns CD-1 mice. Briefly: Elevated plus maze test (EPMT). Particulars: 7th day of rearing, 6 hours after oral treatment, 5 minutes observed; compared with first group (distilled water); 150 mg/kg milk powder or kefir fermentation product, 10 mg/kg trazodone hydrochloride. The assay is classed as in vivo. As to the method: (§1) Take 5-week-old CD-1 mice, provide standard laboratory animal feed (Altromin, Germany) and distilled water (dH2O), and keep them for 12 hours at 22-24° C. for light/dark cycles. Before starting the test, each group of mice are raised in an experimental animal room for 1 week to adapt to the environment, and then the mice are randomly divided into 4 groups, and the mice in each of the groups are treated and raised for 8 days (referred to as the first day of rearing to the eighth day of rearing) according to the following conditions: • the first group: take distilled water orally; • the second group: take 150 mg/kg milk powder orally; • the third group: take 150 mg/kg kefir fermentation product orally; and • the fourth group: take 10 mg/kg drug trazodone hydrochloride orally.
The mice in each of the groups of Example 1 are treated for 6 hours according to the above conditions on the 7th day of rearing, and then an elevated plus maze test is performed, and paths of the mice in each of the groups within 5 minutes are observed with a camera. The results are shown in FIGS. 2A to 2D, and the time of the mice in each of the groups spent on open arms or closed arms in the elevated plus maze is analyzed, and the results are shown in FIG. 2E to FIG. 2H.

For assay [2], the system named is CD-1 mice. The experiment in a line: Open field test (OFT). The assay is classed as in vivo. Particulars: 8th day of rearing, 30 minutes after oral treatment, 5 minutes in open field; compared with first group (distilled water). The method, then:
as §1
The mice in each of the groups in Example 2 are treated according to the above conditions for 30 minutes on the 8th day of rearing, and then an open field test is carried out. Specifically, the mice in each of the groups are first placed in an open field (45×45×40 cm) for 5 minutes, their travel paths and travel speeds are observed respectively, and the time it takes to reach the centers and the time spent at a fixed position are calculated.

Assay [3] deals with CD-1 mice. The experiment in a line: Forced swimming test (FST). The note with it: 7th day of rearing, 30 minutes after oral treatment, testing time 6 minutes; kefir fermentation product 150 mg/kg, trazodone hydrochloride 10 mg/kg; average±standard deviation. The assay is classed as in vivo. The method, then: as §1
The mice in each of the groups of Example 2 are treated for 30 minutes according to the above conditions on the 7th day of rearing, and then a swimming test is carried out, testing time is 6 minutes. Movement and immobility time are measured and analyzed with a camera. The results are shown in FIG. 4, wherein the immobility time is a period of time without active movement but only floating in the water; the movement time is a period of time with active movement or circular movement.

In assay [4] the test system is BDNF (brain-derived neurotrophic factor). Briefly: BDNF mRNA expression in hippocampal tissues, quantitative RT-PCR. The note with it: oral treatment for 8 days; compared with first group (distilled water). The assay is classed as in vivo, mice. As to the method:
as §1
(§2) After the test, the mice in each of the groups are anesthetized and their hippocampal tissues are isolated, and frozen and preserved for use in subsequent examples.
(§3) Expressions of protein and mRNA in the hippocampal tissues of the mice in each of the groups in Example 2 are assessed by quantitative RT-PCR method and western blot analysis, and the results are shown in FIG. 6 and FIG. 7, respectively.

Another assay concerns TrkB. The experiment in a line: TrkB and p-TrkB protein in hippocampal tissues, western blot. The assay is classed as in vivo, mice. The note with it: oral treatment for 8 days, compared with first group (distilled water). As to the method:
as §1, §2, §3
A general note: In western blotting, separated proteins are transferred to a membrane and probed.

The next assay concerns Erk1/2. Briefly: Erk1/2 and p-Erk1/2 protein in hippocampal tissues, western blot. The assay is classed as in vivo, mice. Particulars: oral treatment for 8 days, compared with first group (distilled water). The method, then:
as §1, §2, §3

Assay [5] deals with CD-1 mice. Briefly: Tail suspension test (TST). The assay is classed as in vivo. The note with it: 7th day, 30 minutes after oral treatment, 6 minute test, measured in the last 4 minutes; kefir fermentation product 150 mg/kg, peptides 10 mg/kg; average±standard deviation. As to the method: Refer to the steps of Example 2, the CD-1 mice are randomly divided into five groups and raised under the following conditions: • the first group: take distilled water orally; • the second group: take 150 mg/kg kefir fermentation product orally; • the third group: take the peptide 1 (10 mg/kg) disclosed in Example 1 orally, and the amino acid sequence is SEQ ID No: 1; • the fourth group: take the peptide 2 (10 mg/kg) disclosed in Example 1 orally, and the amino acid sequence is SEQ ID No: 2; and • the fifth group 5: take the peptide 3 (10 mg/kg) disclosed in Example 1 orally, and the amino acid sequence is SEQ ID No: 3.
When the mice in each of the groups are raised to the 7th day, after 30 minutes of treatment according to the following conditions, a tail suspension test is carried out for 6 minutes, and the immobility time is measured in the last 4 minutes. The results are shown in FIG. 5, wherein the immobility time refers to a period of time in which the mice are suspended and completely still.

Consider three molecules from patent US11882846B2, “Use of kefir peptide for improving or treating depressive behaviors and related diseases” (National Chung Hsing University, priority 2021, dated 2024).

Structures can show the parent of a compound that is named as a salt.

Turning to `O=c1n(CCCN2CCN(c3cccc(Cl)c3)CC2)nc2ccccn12` [trazodone hydrochloride], the “paths of the mice in the elevated plus maze (movement to the open arms)” value in the assay with CD-1 mice [1] is recorded as “move to the open arms”. In addition, in the assay with CD-1 mice [2], the “movement distance in an open field” value is listed as “move a longer distance”, the “movement speed in an open field” value is given as “move faster” and the “time spent at a fixed position in an open field” value was “spend less time at a certain fixed position”. Besides, in the assay on CD-1 mice [3], the “immobility time in swimming test” value was 0.9 ± 0.2 min and the “movement time in swimming test” value was 3.1 ± 0.3 min. For the same molecule, the “expression of BDNF mRNA in hippocampal tissues” value in assay [4] is “significantly improved”. In addition, in the assay on TrkB, the “expression level of total TrkB protein in hippocampal tissues” value is reported as “have not change significantly”. For the same molecule, in the assay on TrkB (P<0.05), the “phosphorylation status p-TrkB/TrkB in hippocampal tissues” value is “increases significantly”. For the same molecule, the “expression level of total Erk1/2 protein in hippocampal tissues” value in the assay on Erk1/2 is “have not change significantly”. In addition, the “phosphorylation status p-Erk1/2/Erk1/2 in hippocampal tissues” value in the assay on Erk1/2 (P<0.05) is on record as “increases significantly”.

As for “peptide 2: YQEPVLGPVRGPFPI, SEQ ID No: 2; the kefir peptide of the invention, isolated from kefir fermentation product (artificiall obtained)”, in the assay on CD-1 mice [5], the “immobility time in tail suspension test” value came out at 1.0 ± 0.2 min and the “movement time in tail suspension test” value amounted to 3.0 ± 0.2 min.

As to “peptide 3: KLHLPLPLVQSWM, SEQ ID No: 3; peptide isolated from kefir fermentation product, can also be chemically synthesized (artificiall obtained)”, in the assay on CD-1 mice [5], the “immobility time in tail suspension test” value is 1.8 ± 0.3 min and the “movement time in tail suspension test” value is 2.2 ± 0.3 min.
